The values that follow come from article PMC9995496, “A screen for MeCP2-TBL1 interaction inhibitors using a luminescence-based assay” (Scientific Reports, 2023).

Structures can show the parent of a compound that is named as a salt. Square brackets hold non-standard residues; d marks the D form. Peptide text beside a SMILES is read from it. * marks the point of attachment. ξ: configuration not given here. Nva = CCC[C@H](N)C(=O)O; Cbz = O=C(OCc1ccccc1)*; ξL = CC(C)CC(N)C(=O)O; ξM = CSCCC(N)C(=O)O

The first test deals with PRKACA-PRKAR2A interaction (SmBiT-PRKACA / LgBiT-PRKAR2A), protein kinase A. The arrangement: NanoLuc complementation counter-screen in cell extract, PRKACA with PRKAR2A, loss of luminescence, detects NanoLuc interference. As to conditions: 0.5 h, 20 µM; inhibitor.
In the case of `COc1cc2cc(c1Cl)N(C)C(=O)C[C@H](OC(=O)C(C)C)[C@]1(C)O[C@@H]1[C@H](C)[C@@H]1C[C@@](O)(NC(=O)O1)[C@H](OC)/C=C/C=C(\C)C2` [UM0141517:01, Ansamitocin P-3], the “Inh (PKA)” value is reported as 6.121%.

As for `CC[C@@H]1/C=C(\C)C[C@H](C)C[C@H](OC)[C@H]2O[C@@](O)(C(=O)C(=O)N3CCCC[C@H]3C(=O)O[C@H](/C(C)=C/[C@@H]3CC[C@@H](O)[C@H](OC)C3)[C@H](C)[C@@H](O)CC1=O)[C@H](C)C[C@@H]2OC` [UM0141519:01, Ascomycin(FK 520)], the “Inh (PKA)” value is on record as 13.3.

The test is the same for the next values; noted with them: counter-screen for NanoLuc interference, 0.5 h, 20 µM, inhibitor, Inh (PKA).
On to `COc1cc2nccc(Oc3ccc(NC(=O)C4(C(=O)Nc5ccc(F)cc5)CC4)cc3)c2cc1OC` [UM0141491:01, Cabozantinib (XL184, BMS-907351)], for which the “Inh (PKA)” value turned out to be 10.46%.

Take `C[C@@H](N)[C@H]1CC[C@H](C(=O)Nc2ccncc2)CC1` [UM0141498:01, Y-27632 dihydrochloride]: the “Inh (PKA)” value is -3.616%.

For `C[C@@H](N)[C@H]1CC[C@H](C(=O)Nc2ccncc2)CC1` [UM0141498:02, Y-27632], the “Inh (PKA)” value is reported as -5.28%.

Turning to `N#CC[C@H](C1CCCC1)n1cc(-c2ncnc3[nH]ccc23)cn1` [UM0141500:01, Ruxolitinib (INCB018424)], the “Inh (PKA)” value is 28.73%.

With `CN(C)C/C=C/C(=O)Nc1cc2c(Nc3ccc(F)c(Cl)c3)ncnc2cc1O[C@H]1CCOC1` [UM0141512:01, Afatinib dimaleate], the “Inh (PKA)” value is on record as 6.216%.

Take `CN(C)C/C=C/C(=O)Nc1cc2c(Nc3ccc(F)c(Cl)c3)ncnc2cc1O[C@H]1CCOC1` [UM0141512:02, Afatinib (BIBW2992)]: the “Inh (PKA)” value is given as 5.289%.

On to `Cn1c(=O)cc(N2CCC[C@@H](N)C2)n(Cc2ccccc2C#N)c1=O` [UM0141514:01, Alogliptin Benzoate], for which the “Inh (PKA)” value is 3.371%.

The test is the same for the next values; noted with them: counter-screen for NanoLuc interference; 0.5 h, 20 µM; inhibitor.
For `CC(C)C[C@H](NC(=O)[C@@H](O)[C@H](N)Cc1ccccc1)C(=O)O` [UM0141468:01, Bestatin], the “Inh (PKA)” value was 1.556%.

`CNC(=O)[C@H](Cc1ccccc1)NC(=O)[C@H](CC(C)C)[C@H](CSc1cccs1)C(=O)NO` [UM0141470:01, Batimastat (BB-94)]: the “Inh (PKA)” value is given as 1.977%.

With `CC(C)C[C@@H](C=O)NC(=O)[C@H](CC(C)C)NC(=O)[C@H](CC(C)C)NC(=O)OCc1ccccc1` [UM0141471:01, MG-132] (Cbz-Leu-Leu-Leu-aldehyde), the “Inh (PKA)” value is listed as 6.639%.

On to `Cc1cc2c(F)c(Oc3ncnn4cc(OC[C@@H](C)O)c(C)c34)ccc2[nH]1` [UM0141474:01, Brivanib (BMS-540215)], for which the “Inh (PKA)” value was 42.48%.

On to `CSCCC(C=O)NC(=O)C(CC(C)C)NC(=O)[C@H](CC(C)C)NC(C)=O` (some centres unmarked) [UM0141476:01, Calpain Inhibitor II, ALLM] (Ac-Leu-[ξL]-[ξM]-aldehyde), for which the “Inh (PKA)” value worked out at 1.385%.

For the compound `CC[C@H](C)[C@H](NC(=O)[C@H]([C@@H](C)CC)N(C)C(C)=O)C(=O)N[C@H](C(=O)N[C@@H](CC(C)C)C(=O)[C@@]1(C)CO1)[C@@H](C)O` [UM0141477:01, Epoxomicin], the “Inh (PKA)” value worked out at 1.438%.

As to `CCC[C@@H](C=O)NC(=O)[C@H](CC(C)C)NC(=O)[C@H](CC(C)C)NC(=O)OCc1ccccc1` [UM0141478:01, MG-115] (Cbz-Leu-Leu-[Nva]-aldehyde), the “Inh (PKA)” value was found to be 4.161%.

For `Cc1cc2c(F)c(Oc3ncnn4cc(OC[C@@H](C)OC(=O)[C@H](C)N)c(C)c34)ccc2[nH]1` [UM0141479:01, Brivanib Alaninate (BMS-582664)], the “Inh (PKA)” value came to 33.56%.

As to `CC(C)(CO)c1cc2cc(NC(=O)C3(c4ccc5c(c4)OC(F)(F)O5)CC3)c(F)cc2n1C[C@@H](O)CO` [UM0141480:01, VX-661], the “Inh (PKA)” value is 12.93%.

For the compound `Cc1cc(C(C)Nc2ccccc2)c2nc(N3CCOCC3)cc(=O)n2c1` (centres unmarked) [UM0141481:01, TGX-221], the “Inh (PKA)” value was 45.75%.

With `Nc1nc(N)c2nc(-c3cccc(O)c3)c(-c3cccc(O)c3)nc2n1` [UM0141482:01, TG100-115], the “Inh (PKA)” value is on record as 37.25%.

On to `CN(C)CCN1C(=O)c2cccc3cc(N)cc(c23)C1=O` [UM0141483:01, Amonafide], for which the “Inh (PKA)” value turned out to be 12.14%.

As to `O=C(Nc1cccc(Nc2ncc(Br)c(NCCc3cnc[nH]3)n2)c1)N1CCCC1` [UM0141484:01, BX-912], the “Inh (PKA)” value is reported as 45.28%.

On to `Cc1c(NC(=O)OC[C@@H]2COCCN2)cn2ncnc(Nc3ccc4c(cnn4Cc4cccc(F)c4)c3)c12` [UM0141485:01, AC480 (BMS-599626)], for which the “Inh (PKA)” value is recorded as 24.24%.

For `O=C(Nc1ccc(OC(F)(F)F)cc1)c1sccc1NCc1ccnc2ccccc12` [UM0141486:01, OSI-930], the “Inh (PKA)” value was found to be 39.72%.

`NCC(=O)Nc1ccc(-n2nc(C(F)(F)F)cc2-c2ccc3c(ccc4ccccc43)c2)cc1` [UM0141487:01, OSU-03012 (AR-12)]: the “Inh (PKA)” value is on record as 5.116%.

Regarding `NC(=O)Cc1cccc(C(=O)c2ccccc2)c1N` [UM0141488:01, Nepafenac], the “Inh (PKA)” value is 7.116%.

For the compound `Cc1ccc(F)c(NC(=O)Nc2ccc(-c3cccc4[nH]nc(N)c34)cc2)c1` [UM0141489:01, Linifanib (ABT-869)], the “Inh (PKA)” value stood at 45.3%.

Turning to `COc1cc2c(Oc3ccc(NC(=O)C4(C(=O)Nc5ccc(F)cc5)CC4)cc3F)ccnc2cc1OCCCN1CCOCC1` [UM0141490:01, Foretinib (GSK1363089)], the “Inh (PKA)” value is 3.567%.

In the case of `CCN(CC)C(=O)c1ccc(C2=CC3(CCNCC3)Oc3cccc(O)c32)cc1` [UM0141492:01, ADL5859 HCl], the “Inh (PKA)” value is 2.676%.

Regarding `C=CC(=O)N1CCC[C@@H](n2nc(-c3ccc(Oc4ccccc4)cc3)c3c(N)ncnc32)C1` [UM0141493:01, PCI-32765 (Ibrutinib)], the “Inh (PKA)” value is reported as 23.88%.

On to `CC[C@H](Nc1ncnc2[nH]cnc12)c1nc2cccc(F)c2c(=O)n1-c1ccccc1` [UM0141495:01, CAL-101 (Idelalisib, GS-1101)], for which the “Inh (PKA)” value turned out to be 7.222%.

`CC(C)NC[C@@H](C(=O)N1CCN(c2ncnc3c2[C@H](C)C[C@H]3O)CC1)c1ccc(Cl)cc1` [UM0141496:01, GDC-0068 (RG7440)]: the “Inh (PKA)” value was 42.22%.

On to `CC1(C)CCC(c2ccc(Cl)cc2)=C(CN2CCN(c3ccc(C(=O)NS(=O)(=O)c4ccc(N[C@H](CCN5CCOCC5)CSc5ccccc5)c(S(=O)(=O)C(F)(F)F)c4)cc3)CC2)C1` [UM0141497:01, ABT-263 (Navitoclax)], for which the “Inh (PKA)” value is recorded as -0.2397%.

With `Cc1cnc(-c2cnc(NCCNc3ccc(C#N)cn3)nc2-c2ccc(Cl)cc2Cl)[nH]1` [UM0141499:01, CHIR-99021 (CT99021)], the “Inh (PKA)” value is recorded as 50.27%.

Turning to `CCN1CCN(c2ccc(Nc3cc(N(C)C(=O)Nc4c(Cl)c(OC)cc(OC)c4Cl)ncn3)cc2)CC1` [UM0141502:01, BGJ398], the “Inh (PKA)” value is listed as -0.1399%.

Regarding `Nc1cc(C(F)(F)F)c(-c2cc(N3CCOCC3)nc(N3CCOCC3)n2)cn1` [UM0141503:01, BKM120], the “Inh (PKA)” value worked out at 7.459%.

As for `CN[C@@H](C)C(=O)N[C@H]1CN(C(=O)CC(C)C)CC[C@H]2CC[C@@H](C(=O)NC(c3ccccc3)c3ccccc3)N2C1=O` [UM0141504:01, AT-406 (SM-406)], the “Inh (PKA)” value turned out to be 0.8145%.

Regarding `C[C@@H](Oc1cc(-c2cnn(C3CCNCC3)c2)cnc1N)c1c(Cl)ccc(F)c1Cl` [UM0141505:01, (R)-Crizotinib], the “Inh (PKA)” value is 10.35%.

`Nc1ncnc2c1c(I)cn2[C@@H]1O[C@H](CO)[C@@H](O)[C@H]1O` [UM0141507:01, 5-Iodotubercidin]: the “Inh (PKA)” value is recorded as 18.13%.

For `O=C(NC[C@@H]1CN(c2ccc(N3CCOCC3=O)cc2)C(=O)O1)c1ccc(Cl)s1` [UM0141508:01, 5-R-Rivaroxaban], the “Inh (PKA)” value turned out to be 3.342%.

For the compound `Cc1n[nH]c2ccc(-c3cncc(OC[C@@H](N)Cc4c[nH]c5ccccc45)c3)cc12` [UM0141510:01, A-443654], the “Inh (PKA)” value is on record as 34.74%.

As for `Nc1nc(NC2CC2)c2ncn([C@H]3C=C[C@@H](CO)C3)c2n1` [UM0141511:01, Abacavir], the “Inh (PKA)” value turned out to be 2.063%.

On to `O=C(Nc1cccc(C(F)(F)F)c1)Nc1cc(S(=O)(=O)NC2CC2)ccc1-c1ccsc1` [UM0141513:01, AGI-6780], for which the “Inh (PKA)” value is listed as 24.76%.

Turning to `N#Cc1ccc(Oc2ccc3c(c2)COB3O)cc1` [UM0141516:01, AN-2728], the “Inh (PKA)” value was found to be 2.062%.

With `N#CC(c1ccnc(OCc2ccc(CN3CCOCC3)cc2)n1)c1nc2ccccc2s1` (centres unmarked) [UM0141518:01, AS 602801], the “Inh (PKA)” value worked out at 8.348%.

As to `COc1cc(N2CCC(N3CCN(C)CC3)CC2)ccc1Nc1ncnc(Nc2ccccc2S(=O)(=O)C(C)C)n1` [UM0141520:01, ASP3026], the “Inh (PKA)” value is on record as 2.084%.

As to `C=C[C@@H]1C[C@]1(NC(=O)[C@@H]1C[C@@H](Oc2ncc(OC)c3ccc(Cl)cc23)CN1C(=O)[C@@H](NC(=O)OC(C)(C)C)C(C)(C)C)C(=O)NS(=O)(=O)C1CC1` [UM0141521:01, Asunaprevir (BMS-650032)], the “Inh (PKA)” value is given as -7.752%.

For `C=CC(=O)Nc1cccc(Nc2nc(Nc3ccc(OCCOC)cc3)ncc2F)c1` [UM0141522:01, AVL-292], the “Inh (PKA)” value stood at 22.87%.

For the compound `COc1cc([C@@H]2c3cc4c(cc3[C@H](O)[C@H]3COC(=O)[C@@H]23)OCO4)cc(OC)c1OC` [UM0141523:01, AXL1717], the “Inh (PKA)” value turned out to be 8.722%.

`C[C@@H]1COCCN1c1cc(C2(S(C)(=O)=O)CC2)nc(-c2cccc3[nH]ccc23)n1` [UM0141524:01, AZ20]: the “Inh (PKA)” value turned out to be 9.96%.

For the compound `CCN(CCCOc1ccc2c(Nc3cc(CC(=O)Nc4cccc(F)c4)[nH]n3)ncnc2c1)CCOP(=O)(O)O` [UM0141525:01, AZD1152], the “Inh (PKA)” value is 8.114%.

Consider `COC(=O)[C@]12CCC(C)(C)C[C@H]1[C@H]1C(=O)C=C3[C@@]4(C)C=C(C#N)C(=O)C(C)(C)[C@@H]4CC[C@@]3(C)[C@]1(C)CC2` [UM0141526:01, Bardoxolone methyl], for which the “Inh (PKA)” value turned out to be 12.18%.

For the compound `CNCc1ccc(C)c(NC(=O)c2ccc(Nc3nc(-c4ccccc4)c4ccccc4n3)cc2)c1` [UM0141527:01, BMS-833923], the “Inh (PKA)” value is on record as 45.75%.
